In publication PMC4754628 (Scientific Reports, 2016):

Key:
Kv11.1-3.1 [1] = assay: Quantitative Western blot of Kv11.1-3.1 expression and trafficking (FG/CG bands) after overnight drug treatment; type: cell-based, human; details: for Trafficking Rescue?: Literature compounds screened for Kv11.1-3.1 trafficking rescue; for Trafficking Rescue? / Kv11.1-3.1 expression and trafficking rescue (FG band) by selective inhibitors of ALLN targets: Western blot; for Kv11.1-3.1 expression and trafficking rescue (FG band) by selective inhibitors of ALLN targets: Kv11.1-3.1 cells, single agents or cocktails
Procedure: HEK 293 cells were cultured at 37 °C (5% CO2) in Glutamax® Dulbecco’s modified Eagle’s Medium/Ham’s F-12 (Life Technologies, Grand Island, NY) supplemented with 1x Non-essential amino acids (Life Technologies, Grand Island, NY), 1x Penicillin/Streptomycin (Life Technologies, Grand Island, NY) and 10% fetal bovine serum (Sigma Aldrich, Saint Louis, MO). For pharmacological treatments, drugs were dissolved in DMSO and added to media at DMSO final concentrations < 0.2%. Cells were incubated in drug-containing media for 16–20 hours prior to assays.
Cells were washed with ice-cold PBS, harvested in ice-cold PBS, and pelleted by centrifugation at 500 g for 5 minutes. Cell pellets were resuspended with Radioimmunoprecipitation assay (RIPA) buffer (Sigma Aldrich, Saint Louis, MO) and rotated at 4 °C for 1 hour. Lysates were cleared by centrifugation at 16,000 g for 10 minutes and supernatants were analyzed for total protein concentration using a BCA kit (Pierce, Rockford, Illinois). […] Proteins were transferred onto 0.45 μm nitrocellulose membranes and incubated for 1hr in Odyssey® PBS blocking buffer (Li-Cor Biosciences, Lincoln, NE). Membranes were probed with anti-HA (1:5,000, GeneTex, Irvine, CA) and anti-NaK-ATPase (1:2,500, GeneTex, Irvine, CA) primary antibodies in Odyssey® PBS blocking buffer overnight at 4 °C. Anti-HA and anti-NaK-ATPase signals were detected using IRdye 800 donkey anti-rabbit (1:20,000, Li-Cor Biosciences, Lincoln, NE) and IRdye 680 donkey anti-mouse (1:20,000, Li-Cor Biosciences), respectively. The Li-Cor Odyssey® imaging system and software was used for antibody detection and quantification.

hERG LQT2 mutants = details: some LQT2 mutants; cited from earlier work
Kv11.1-3.1 [2] = assay: Quantitative immunofluorescence / high content imaging of Kv11.1-3.1 (sub-cellular and cell surface); type: cell-based, human
Procedure: (§1) Stable HEK 293 cell lines expressing either the full-length (1A) or deletion Kv11.1 (3.1) channel variant were plated onto 24 well ibiTreat® plates (ibidi, Martinsried, Germany) and grown until 80–90% confluent. For sub-cellular co-localization studies, cells were fixed with 4% paraformaldehyde in PBS for 15 minutes. Cells were simultaneously permeabilized, blocked, and quenched for background fluorescence by incubation in a PBS solution containing 0.1% Triton X-100, 10% normal goat serum, and 0.75% glycine for 15 minutes. Cells were probed with primary antibodies: anti-extracellular loop hERG (1:1000, Sigma Aldrich, Saint Louis, MO), anti-calnexin (1:1000, Abcam, Cambridge, MA), anti-58K Golgi protein (1:200, Abcam), anti-20s proteasome β1 (1:200, Santa Cruz Biotechnology, Dallas, TX). […]. Cell surface labeling with anti-hERG antibody was performed as described above. Cell images were captured with the Operetta® high content imaging system and quantified with Columbus® image analysis suite (both PerkinElmer, Waltham, MA).
(§2) Electrophysisology data analysis was performed using Axograph X® (Axograph, Berkley, CA) All data is presented as mean ± SEM unless specified. Unpaired T-tests, ANOVA, and subsequent Bonferroni corrections were completed using Prism (Graphpad, La Jolla, CA). Microscopy data was analyzed with linear mixed models with fixed effects for the treatment variables with a random intercept by replicate/well – hERG and RFP levels were log2-transformed prior to analysis. P values < 0.05 were accepted as significant.

Kv11.1-1A [3] = assay: Quantitative immunofluorescence / high content imaging of Kv11.1-1A (sub-cellular and cell surface); type: cell-based, human
Procedure: as §1
as §2, with “Unpaired T-tests, ANOVA, and subsequent Bonferroni corrections were completed using Prism (Graphpad, La Jolla, CA).” left out, “P values < 0.05 were accepted as significant.” left out

Kv11.1-3.1 [4] = assay: Co-immunoprecipitation of HA-tagged Kv11.1-3.1 probed for ubiquitin; type: cell-based, human; details: bortezomib 16 hours vs DMSO
Procedure: (§3) Dynabeads Protein G® (Life Technologies, Grand Island, NY) were prepared according to the manufacturer’s instructions and incubated with HA.11 anti-HA antibody (BioLegend, San Diego, CA) for 30 minutes and then fixed with BS[3] crosslinking reagent (ThermoFischer Scientific, Waltham, MA) to prevent antibody dissociation. Equal amounts of cell lysates from stably expressing Kv11.1 cell lines were prepared as before and then incubated with the prepared beads overnight at 4 °C. Beads were washed and proteins were eluted per the manufacturer’s instructions and visualized via SDS-PAGE. Membranes were probed with the antibodies described previously and anti-ubiquitin (1:1000, Abcam, Cambridge, MA). Antibody detection was performed as before.

Kv11.1-1A [5] = assay: Co-immunoprecipitation of HA-tagged Kv11.1-1A probed for ubiquitin; type: cell-based, human; details: bortezomib 16 hours vs DMSO
Procedure: as §3

Kv11.1-1A [6] = details: 1A expressing cells
Kv11.1-3.1 [7] = target: T1, Kv11.1-3.1 (Homo sapiens, UniProt Q12809)
Kv11.1-3.1 [8] = target: T1, Kv11.1-3.1; details: treated Kv11.1-3.1 cells, E4031 or DMSO controls, n = 16

T1 sequence (Q12809 1-1063 isoform Q12809-7): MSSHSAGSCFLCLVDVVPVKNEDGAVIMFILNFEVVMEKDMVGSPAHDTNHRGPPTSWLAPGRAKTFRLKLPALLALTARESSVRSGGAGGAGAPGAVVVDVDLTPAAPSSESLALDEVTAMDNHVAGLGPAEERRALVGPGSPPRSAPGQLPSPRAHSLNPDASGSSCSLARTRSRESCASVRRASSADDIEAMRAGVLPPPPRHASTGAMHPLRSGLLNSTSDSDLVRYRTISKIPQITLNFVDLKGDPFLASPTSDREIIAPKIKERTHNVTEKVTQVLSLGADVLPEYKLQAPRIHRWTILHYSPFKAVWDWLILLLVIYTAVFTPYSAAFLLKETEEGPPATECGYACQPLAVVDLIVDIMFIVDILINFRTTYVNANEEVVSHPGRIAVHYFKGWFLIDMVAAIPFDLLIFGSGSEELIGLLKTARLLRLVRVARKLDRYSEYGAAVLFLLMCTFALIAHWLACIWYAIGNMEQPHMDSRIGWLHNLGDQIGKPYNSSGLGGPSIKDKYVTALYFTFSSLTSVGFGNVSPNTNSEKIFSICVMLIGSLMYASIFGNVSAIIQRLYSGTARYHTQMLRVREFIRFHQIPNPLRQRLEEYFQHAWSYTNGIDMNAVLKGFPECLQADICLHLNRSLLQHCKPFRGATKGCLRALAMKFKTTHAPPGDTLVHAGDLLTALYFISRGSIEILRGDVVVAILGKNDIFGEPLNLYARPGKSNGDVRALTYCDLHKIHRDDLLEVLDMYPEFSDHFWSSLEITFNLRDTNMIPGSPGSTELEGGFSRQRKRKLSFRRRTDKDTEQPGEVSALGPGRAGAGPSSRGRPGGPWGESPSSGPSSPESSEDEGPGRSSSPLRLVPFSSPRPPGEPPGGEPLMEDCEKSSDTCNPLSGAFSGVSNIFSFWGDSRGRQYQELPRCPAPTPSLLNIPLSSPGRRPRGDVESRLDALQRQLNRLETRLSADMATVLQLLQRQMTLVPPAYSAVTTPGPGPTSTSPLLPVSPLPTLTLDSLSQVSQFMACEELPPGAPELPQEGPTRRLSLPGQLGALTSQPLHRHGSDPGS

In the case of O=C(O)c1ccccc1Nc1ccc(CCc2ccc(Cl)c(Cl)c2)cc1 [PD-118057], the “Trafficking Rescue?” value (Kv11.1-3.1 [1]) is reported as “No”.

In the case of C[N+](C)(C)CCOC(N)=O.[Cl-] [Carbamoylcholine Chloride], the “Trafficking Rescue?” value (Kv11.1-3.1 [1]) is reported as “No”.

With N#Cc1ccc(COC[C@H]2O[C@@H](n3c(NCc4ccc(Cl)c(Cl)c4)nc4c(N)ncnc43)[C@H](O)[C@@H]2O)cc1 [VER-155008] the “Trafficking Rescue?” value (Kv11.1-3.1 [1]) was “No”.

With CCCNC(=O)[C@H]1O[C@@H]1C(=O)N[C@H](C(=O)N1CCC[C@H]1C(=O)O)[C@@H](C)CC [CA 078] the “Kv11.1-3.1 expression and trafficking rescue (FG band) by selective inhibitors of ALLN targets” value (Kv11.1-3.1 [1]) was “only bortezomib was effective”.

In the case of CC(=O)N[C@@H](CSC(=O)[C@]1([C@@H](O)C(C)C)NC(=O)[C@H](C)[C@@H]1O)C(=O)O [lactacystin], the “hERG expression in LQT2 mutants” value (hERG LQT2 mutants) is given as “increase hERG expression” and the “trafficking rescue in LQT2 mutants” value (hERG LQT2 mutants) is given as “trafficking was unable to be rescued”.

In the case of COc1cc(N)c(Cl)cc1C(=O)NC1CCN(CCCOc2ccc(F)cc2)CC1OC (stereo not shown) [Cisapride], the “Trafficking Rescue?” value (Kv11.1-3.1 [1]) is reported as “No”.

In the case of CCc1ccccc1NC(=O)CSC(=O)NNC(=O)[C@H](Cc1c[nH]c2ccccc12)NC(=O)OC(C)(C)C [SID 26681509], the “Kv11.1-3.1 expression and trafficking rescue (FG band) by selective inhibitors of ALLN targets” value (Kv11.1-3.1 [1]) is reported as “only bortezomib was effective”.

For COC(=O)Nc1nc2ccc(C(=O)c3cccs3)cc2[nH]1 [Nocodazole], the “Trafficking Rescue?” value (Kv11.1-3.1 [1]) was “No”.

For CC(C)C[C@H](NC(=O)[C@H](Cc1ccccc1)NC(=O)c1cnccn1)B(O)O [bortezomib], the “increase of overall channel expression (Total hERG/NaK ATPase)” value (Kv11.1-3.1 [1]; Kv11.1-3.1 HEK 293 cells, bortezomib 10 nM) was 6 fold, the “trafficking efficiency (FG/Total hERG)” value (Kv11.1-3.1 [1]; Kv11.1-3.1 HEK 293 cells, bortezomib 10 nM, n = 4) was 25 ± 2% and the “Kv11.1-3.1 expression and trafficking rescue (FG band) by selective inhibitors of ALLN targets” value (Kv11.1-3.1 [1]) was “effective”. For the same compound, the “elevation of steady-state Kv11.1-3.1 protein level (RFP-normalized fluorescence)” value (Kv11.1-3.1 [2]; Kv11.1-3.1 cells cultured with drug, n = 3) was about 3 fold, the “Kv11.1-3.1 proteasome domain expression increase” value (Kv11.1-3.1 [2]; colocalization domain) was “not found to be significant” and the “Kv11.1-3.1 expression in cytoplasm, nuclear regions, ER and Golgi” value (Kv11.1-3.1 [2]; subcellular segmentation and colocalization domains) was “significantly increased”. The “factor of increase of surface Kv11.1-3.1/RFP ratio” value (Kv11.1-3.1 [2]; vs untreated Kv11.1-3.1) was 2, the “elevation of Kv11.1 1A protein level (RFP-normalized fluorescence)” value (Kv11.1-1A [3]; Kv11.1-1A cells cultured with drug) was “modest elevation” and the “ratio of surface Kv11.1-1A/RFP, slope m of linear regression” value (Kv11.1-1A [3]; single cells, untreated m = 0.34) was 0.40. For the same compound, the “ubiquitin signal of immunoprecipitated Kv11.1-3.1 channels” value (Kv11.1-3.1 [4]) was “decrease in ubiquitin signal”, the “ubiquitin signal of immunoprecipitated 1A channels” value (Kv11.1-1A [5]) was “accumulation of ubiquitin signal” and the “Kv11.1-1A band changes on Western blot” value (Kv11.1-1A [6]) was “only increasing 1A CG expression”. For the same compound, the “cell membrane capacitance normalized peak tail current” value (Kv11.1-3.1 [7]; bortezomib 10 nM treated Kv11.1-3.1 cells, n = 8) was 75.93 ± 11.84 pA/pF, the “effect on Kv11.1-3.1 deactivation rate kinetics (τ deactivation)” value (Kv11.1-3.1 [7]; treated Kv11.1-3.1 cells vs controls, n = 3) was “no effect” and the “signal to background ratio in thallium flux assay” value (Kv11.1-3.1 [8]) was “roughly 4 fold”.

With O=C(O)/C(S)=C/c1ccc(I)cc1 [PD 150606] the “Kv11.1-3.1 expression and trafficking rescue (FG band) by selective inhibitors of ALLN targets” value (Kv11.1-3.1 [1]) was “only bortezomib was effective”.
